# According to patent US7256198B2, “Pyrimidoindolones and methods for using same” (Wyeth, priority 2004, dated 2007):
# Target: T1, recombinant caspase 3 (Homo sapiens, UniProt P42574)
# T1 construct: His tag (C); made in house; host or cells: E. coli
# T1 sequence (P42574 29-175 limits assumed): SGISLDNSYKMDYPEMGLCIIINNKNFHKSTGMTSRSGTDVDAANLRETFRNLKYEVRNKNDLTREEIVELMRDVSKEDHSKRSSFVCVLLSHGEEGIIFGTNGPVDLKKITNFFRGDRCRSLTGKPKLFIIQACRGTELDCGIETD
# T1 sequence (P42574 176-277 limits assumed): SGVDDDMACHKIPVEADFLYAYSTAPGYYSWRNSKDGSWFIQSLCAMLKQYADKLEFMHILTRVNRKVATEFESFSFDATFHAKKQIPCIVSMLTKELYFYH
# Test: Caspase 3 Inhibition Assay (Ac-DEVD-AFC fluorogenic substrate cleavage)
# Assay type: biochemical
# Settings: @ 1 μM compound; recombinant caspase 3, Ac-DEVD-AFC 25 μM, pH 7.2, 23° C.; read-out: percent inhibition at the highest compound concentration
# Method: Caspase 3 was expressed intracellularly in E. coli with a c-terminal His tag. Fermentation was performed at 25° C. in a B. Braun Biotech Biostat C 10 liter bioreactor vessel. The culture was collected in IL bottles and centrifuged in Komspin KA-7.1000 rotors at approximately 8000 RCF (Relative Centrifugal Force). The cell pellets were re-suspended in 20 mM Tris pH 8.0, 500 mM NaCl, and 5 mM imidazole. The cell suspension was disrupted by passing 5 times through a microfluidizer Model 110Y (Microfluidics Corp, Newton, Mass). After centrifugation (13 kg, 30 min at 4 C), the supernatant was applied to a column of Nickle-NTA agarose. The Caspase 3 was eluted with a gradient of 5 mM to 150 mM imidazole in the above buffer. Fractions containing Caspase 3 were pooled and concentrated with a Millipore Ultrafree filtration device. The concentrated Caspase 3 solution was loaded unto a TSK gel G3000sw column (Tosoh Bioseph LLC), equilibrated with a buffer of 20 mM PIPES pH 7.2, 100 mM NaCl, 1 mM EDTA & 5 mM Cysteine. Fractions containing Caspase 3 were pooled and concentrated. Sometimes CHAPS was added to 0.1% and sucrose to 10% into the protein sample.
# Caspase 3 was assayed at 23° C. (room temp) in 96-well plates using the internally quenched tetrapeptide substrate N-acetyl-aspartyl-glutamyl-valyl-aspartate-7-amino-4-trifluoromethyl coumarin (Ac-DEVD-AFC purchased from Biomol). The assays are conducted at pH 7.2 in a buffered system containing 20 mM PIPES, 100 mM NaCl, 1 mM EDTA, 0.1% CHAPS, 10% sucrose and 5 mM L-cysteine. […] A steady state rate of substrate cleavage is obtained for analysis.
# The progress curves generated were fitted by computer to equation 1 to generate an IC50 value. Equation 1: y=Bmax*(1−(x^n/(K^n+x^n))), where Bmax is rate in the absence of inhibitor.
row,inhibition at 1 µM,Compound
1,10%,"COC[C@@H]1CCCN1C(=O)c1ccc2c(c1)C(=O)C1=NCC(C)(C)CN12 [Example 75, 8-{[(2S)-2-(Methoxymethyl)pyrrolidin-1-yl]carbonyl}-3,3-dimethyl-3,4-dihydropyrimido[1,2-a]indol-10(2H)-one]"

# Same assay, conditions: @ 50 μM compound; recombinant caspase 3, Ac-DEVD-AFC 25 μM, pH 7.2, 23° C.; read-out: percent inhibition at the highest compound concentration
row,inhibition at 50 µM,Compound
1,28%,"CC(=O)N1CCN(C(=O)c2ccc3c(c2)C(=O)C2=NCC(C)(C)CN23)CC1 [Example 82, 8-[(4-Acetylpiperazin-1-yl)carbonyl]-3,3-dimethyl-3,4-dihydropyrimido[1,2-a]indol-10(2H)-one]"
2,36%,"CC1(C)CN=C2C(=O)c3cc(C(=O)Nc4ccccc4)ccc3N2C1 [Example 76, 3,3-Dimethyl-10-oxo-N-phenyl-2,3,4,10-tetrahydropyrimido[1,2-a]indole-8-carboxamide]"

# More lines, now with the values behind:
row,Compound,inhibition at 50 µM
1,"CC1(C)CN=C2C(=O)c3cc(C(=O)N4CCc5ccccc54)ccc3N2C1 [Example 80, 8-(2,3-Dihydro-1H-indol-1-ylcarbonyl)-3,3-dimethyl-3,4-dihydropyrimido[1,2-a]indol-10(2H)-one]",46%
2,"COc1ccc2c(c1)C(=O)C1=NCCCN12 [Example 11, 8-Methoxy-3,4-dihydropyrimido[1,2-a]indol-10(2H)-one]",9%
3,"Cc1ccc2c(c1)C(=O)C1=NCCCN12 [Example 10, 8-Methyl-3,4-dihydropyrimido[1,2-a]indol-10(2H)-one]",10%
4,"CC1(C)CN=C2C(=O)c3cc(S(=O)(=O)N4CCC[C@H]4COc4cccnc4Br)ccc3N2C1 [Example 35, 8-[((2S)-2-{[(2-Bromopyridin-3-yl)oxy]methyl}pyrrolidin-1-yl)sulfonyl]-3,3-dimethyl-3,4-dihydropyrimido[1,2-a]indol-10(2H)-one]",26%

# Same assay, conditions: recombinant caspase 3 0.25 nM, Ac-DEVD-AFC 25 μM, pH 7.2, 23° C.
row,IC50,Compound
1,23.4 nM,"CC1(C)CN=C2C(=O)c3cc(NS(=O)(=O)c4cccc(Br)c4)ccc3N2C1 [Example 50, 3-Bromo-N-(3,3-dimethyl-10-oxo-2,3,4,10-tetrahydropyrimido[1,2-a]indol-8-yl)benzenesulfonamide]"
2,35000 nM,"CC1(C)CN=C2C(=O)c3cc(C(=O)NC4CCCC4)ccc3N2C1 [Example 77, N-Cyclopentyl-3,3-dimethyl-10-oxo-2,3,4,10-tetrahydropyrimido[1,2-a]indole-8-carboxamide]"
3,714 nM,"Cc1ccc(S(=O)(=O)Nc2ccc3c(c2)C(=O)C2=NCC(C)(C)CN23)cc1 [Example 51, N-(3,3-Dimethyl-10-oxo-2,3,4,10-tetrahydropyrimido[1,2-a]indol-8-yl)-4-methylbenzenesulfonamide]"
4,21000 nM,"CC1(C)CN=C2C(=O)c3cc(C(=O)N4CCCCC4)ccc3N2C1 [Example 79, 3,3-Dimethyl-8-(piperidin-1-ylcarbonyl)-3,4-dihydropyrimido[1,2-a]indol-10(2H)-one]"
5,99 nM,"CC1(C)CN=C2C(=O)c3cc(C#N)ccc3N2C1 [Example 20, 3,3-Dimethyl-10-oxo-2,3,4,10-tetrahydropyrimido[1,2-a]indole-8-carbonitrile]"
6,874 nM,"CC1(C)CN=C2C(=O)c3cc(Cl)ccc3N2C1 [Example 14, 8′-Chloro-3′,3′-dimethyl-3′,4′-dihydropyrimido[1,2-a]indol-10(2H)-one]"

# Further lines, the compound ahead of its results:
row,Compound,IC50
1,"Cc1ccc(OC[C@@H]2CCCN2S(=O)(=O)c2ccc3c(c2)C(=O)C2=NCC(C)(C)CN23)c(I)n1 [Example 46, 8-[((2S)-2-{[(2-Iodo-6-methylpyridin-3-yl)oxy]methyl}pyrrolidin-1-yl)sulfonyl]-3,3-dimethyl-3,4-dihydropyrimido[1,2-a]indol-10(2H)-one]",17 nM
2,"CN1CCN(C[C@@H]2CCCN2S(=O)(=O)c2ccc3c(c2)C(=O)C2=NCC4(CCCC4)CN23)CC1 [Example 84, 8′-({(2S)-2-[(4-Methylpiperazin-1-yl)methyl]pyrrolidin-1-yl}sulfonyl)spiro[cyclopentane-1,3′-pyrimido[1,2-a]indol]-10′(2′H)-one]",30 nM
3,"CC1(C)CN=C2C(=O)c3cc(NS(=O)(=O)c4cc(C(F)(F)F)cc(C(F)(F)F)c4)ccc3N2C1 [Example 62, N-(3,3-Dimethyl-10-oxo-2,3,4,10-tetrahydropyrimido[1,2-a]indol-8-yl)-3,5-bis(trifluoromethyl)benzenesulfonamide]",3140 nM
4,"Cc1ccc(OC[C@@H]2CCCN2S(=O)(=O)c2ccc3c(c2)C(=O)C2=NCC(C)(C)CN23)cc1 [Example 24, 3,3-Dimethyl-8-({(2S)-2-[(4-methylphenoxy)methyl]pyrrolidin-1-yl}sulfonyl)-3,4-dihydropyrimido[1,2-a]indol-10(2H)-one]",49 nM
5,"Cc1ccc(OC[C@@H]2CCCN2S(=O)(=O)c2ccc3c(c2)C(=O)C2=NCC(C)(C)CN23)c(Cl)c1 [Example 26, 8-({(2S)-2-[(2-Chloro-4-methylphenoxy)methyl]pyrrolidin-1-yl}sulfonyl)-3,3-dimethyl-3,4-dihydropyrimido[1,2-a]indol-10(2H)-one]",98 nM
6,"CC(=O)c1ccc(OC[C@@H]2CCCN2S(=O)(=O)c2ccc3c(c2)C(=O)C2=NCC(C)(C)CN23)c(C)c1 [Example 27, 8-({(2S)-2-[(4-Acetyl-2-methylphenoxy)methyl]pyrrolidin-1-yl}sulfonyl)-3,3-dimethyl-3,4-dihydropyrimido[1,2-a]indol-10(2H)-one]",55 nM
7,"COC[C@@H]1CCCN1S(=O)(=O)c1cc2c(cc1Cl)N1CCCN=C1C2=O [Example 5, 7-Chloro-8-{[(2S)-2-(methoxymethyl)pyrrolidin-1-yl-]sulfonyl}-3,4-dihydropyrimido[1,2-a]indol-10(2H)-one]",189 nM
8,"COC[C@@H]1CCCN1S(=O)(=O)c1ccc2c(c1)C(=O)C1=NCC3(CCCCCC3)CN12 [85/86, 8′-{[(2S)-2-(methoxymethyl)pyrrolidin-1-yl]sulfonyl}spiro[cycloheptane-1,3′-pyrimido[1,2-a]indol]-10′(2′H)-one]",45 nM
9,"CC1(C)CN=C2C(=O)c3cc(NS(=O)(=O)c4ccc(Cl)c(Cl)c4)ccc3N2C1 [Example 53, 3,4-Dichloro-N-(3,3-dimethyl-10-oxo-2,3,4,10-tetrahydropyrimido[1,2-a]indol-8-yl)benzenesulfonamide]",233 nM
10,"CC1(C)CN=C2C(=O)c3cc(S(=O)(=O)N4CCC[C@H]4COc4cccnc4Cl)ccc3N2C1 [Example 43, 8-[((2S)-2-{[(2-Chloropyridin-3-yl)oxy]methyl}pyrrolidin-1-yl)sulfonyl]-3,3-dimethyl-3,4-dihydropyrimido[1,2-a]indol-10(2H)-one]",7 nM
11,"O=C1C2=NCCCN2c2cc(Cl)c([N+](=O)[O-])cc21 [Example 15, 7-Chloro-8-nitro-3,4-dihydropyrimido[1,2-a]indol-10(2H)-one]",4590 nM
12,"CC1(C)CN=C2C(=O)c3cc(S(=O)(=O)N4CCC[C@H]4COc4cccc(C(F)(F)F)c4)ccc3N2C1 [Example 31, 3,3-Dimethyl-8-[((2S)-2-{[3-(trifluoromethyl)phenoxy]methyl}pyrrolidin-1-yl)sulfonyl]-3,4-dihydropyrimido[1,2-a]indol-10(2H)-one]",45 nM
13,"CC1(C)CN=C2C(=O)c3cc(S(=O)(=O)N4CCC[C@H]4COc4ccc(C(F)(F)F)cn4)ccc3N2C1 [Example 42, 3,3-Dimethyl-8-{[(2S)-2-({[5-(trifluoromethyl)pyridin-2-yl]oxy}methyl)pyrrolidin-1-yl]sulfonyl}-3,4-dihydropyrimido[1,2-a]indol-10(2H)-one]",14 nM
14,"Cc1ccc(OC[C@@H]2CCCN2S(=O)(=O)c2ccc3c(c2)C(=O)C2=NCC(C)(C)CN23)cn1 [Example 44, 3,3-Dimethyl-8-[((2S)-2-{[(6-methylpyridin-3-yl)oxy]methyl}pyrrolidin-1-yl)sulfonyl]-3,4-dihydropyrimido[1,2-a]indol-10(2H)-one]",19 nM
15,"CC1(C)CN=C2C(=O)c3cc(S(=O)(=O)N4CCC[C@H]4COc4cccc(Cl)n4)ccc3N2C1 [Example 40, 8-[((2S)-2-{[(6-Chloropyridin-2-yl)oxy]methyl}pyrrolidin-1-yl)sulfonyl]-3,3-dimethyl-3,4-dihydropyrimido[1,2-a]indol-10(2H)-one]",5 nM
16,"CC1(C)CN=C2C(=O)c3cc(NS(=O)(=O)c4ccc(F)c(Cl)c4)ccc3N2C1 [Example 52, 3-Chloro-N-(3,3-dimethyl-10-oxo-2,3,4,10-tetrahydropyrimido[1,2-a]indol-8-yl)-4-fluorobenzenesulfonamide]",285 nM
